Read-outs that look alike come from different tables or passages of the source. No end group written: not given here.
What was measured:
[1] = Survival of infarcted mice at 14 days; type: in vivo, mouse; conditions: 14 days after MI; BNP ip every 2 days; saline group 83.9%
Method: To generate a permanent infarction, a ligation of the left anterior descending coronary artery (LAD) was performed in 6–8-week-old C57BL/6- or 8-week-old Myh6 MerCreMer mice, already injected with Tamoxifen 2 weeks before. Mice were anesthetized with ketamine/xylazine and acepromazine (65 mg/kg, 15 mg/kg, 2 mg/kg, respectively). Mice were intubated and ventilated during all the entire period of surgery. At the third intercostal space, the chest cavity was opened and at the left upper sterna border, the LAD coronary artery was ligated with a 7–0 nylon suture at about 1–2 mm from the atria. After surgery, Temgesic (Buprenorphine, 0.1 mg/kg) was injected subcutaneously as soon as the mice woken up and every 8–12 h for 2 days. Adult mice were sacrificed by lethal injection of pentobarbital (150 mg/kg intraperitoneally) 2 weeks after the surgery. The breathing arrest was controlled and cervical dislocation was performed.
BNP was injected into infarcted adults, and unmanipulated neonatal and adult mice. Directly after surgery, NaCl (saline) or BNP (1.3 µg/20 g in 20 µL) was injected into the left ventricle cavity. At 24 h after MI, mice were intraperitoneal (ip) injected with BNP (2 µg/20 g mice) or saline every 2 days. C57BL/6 mice were sacrificed 1- and 14 days post-MI and Myh6 MerCreMer mice were sacrificed 14 days post-MI (Figure 1A). […]

cardiomyocytes (CMs) [2] = assay: CM nucleation status and cross-sectional area; type: in vivo, mouse; conditions: vs saline
Method: After 25 min sedimentation, CMs were used for molecular analysis, Western blot analysis, flow cytometry analysis or fixed with 2.5% PFA 15 min at room temperature (RT) and stained with DAPI to evaluate the frequency of mono and bi-nucleated CMs.
CM area was assessed by α actinin and laminin stainings and image J software (1.53t version from the 24.08.2022, Mac OX X, Bethesda, MD, USA) for processing using CIF outliner cell Plugin. Only CMs with circularity >0.5 were considered.

Troponin T = Troponin T plasma concentration (ECLIA) after MI; type: in vivo, mouse; conditions: BNP vs saline
Method: Troponin T plasma levels were quantified using an electrochemiluminescence immunoassay analyzer “ECLIA” (cobas e 801 immunoanalysis system, Roche Diagnostics, Rotkreuz, Switzerland) in the hematology laboratory of the Centre Hospitalier Universitaire Vaudois (CHUV). Blood was collected 24 h and 3 days after infarction induction in heparin microvette (Sarstedt, Nümbrecht, Germany).

neonatal CMs = assay: Neonatal cardiomyocyte culture treated with BNP; type: cell-based, mouse
Method: Neonatal (1–2 days) C57BL/6 pups were sacrificed and CMs were isolated by enzymatic digestion according to the method previously described. Briefly, the chest was opened and the heart removed. After separation of the atria from the rest of the heart, the ventricles were minced and digested with 0.45 mg/mL collagenase (Worthington, Biochemical Corporation, Lakewood, NJ, USA) and 1 mg/mL pancreatin (Sigma). After 3 rounds of digestion, cells were plated 2 times for 45 min in order to separate CMs (non-adherent cells) from the non-myocyte cells (NMCs). Thereafter, CMs were plated on gelatine (0.1%) coated plates and cultured in 3:1 mixture of DMEM and Medium 199 (Invitrogen Corp, San Diego, CA, USA) supplemented with 10% horse serum (Oxoid), 5% fetal bovine serum (Invitrogen), 10 mM Hepes, 100 U/mL penicillin G. To homogenize the experiment, 70,000 CMs were plated per well.
Immediately after plating, neonatal CMs were treated or not with BNP for 14 days. To inhibit NMC proliferation and to work on 95% pure CMs, cells were exposed the first 7 days of culture to cytosine-β-D-arabinofuranoside (AraC, 1 mg/mL). After 7 days of culture, AraC was removed until 14 days of culture. CMs were cultured in a hypoxia chamber (Stem Cell Technologies) flushed with 3% O2/5% CO2/92% N2 (Carbagas). Indeed, we previously observed that low oxygen concentration stimulates CM dedifferentiation and proliferation. Medium was replaced 1–2 times/week.
CMs were treated with 3 different concentrations of BNP: 10 nM, 100 nM and 1000 nM and compared to untreated cells. Quantitative RT-qPCR, Western blot analysis as well as immunohistochemistry studies were performed after 14 days of culture.

phospholamban (PLB) = assay: Western blot pPLB/PLB in adult CMs stimulated in vitro; type: cell-based, mouse; conditions: adult CMs stimulated with BNP for 2–3 h in vitro, vs untreated
Method: CM isolations were performed thanks to the Langendorff-Free method. […] Thereafter, the heart was removed from the chest and the left ventricle was perfused with enzymatic solution containing collagenase II (120 U/mL), collagenase IV (120 U/mL) (Worthington, Biochemical Corporation, USA) and protease XIV (0.05 mg/mL or 0.175 U/mL) (Sigma-Aldrich, Merck, Darmstadt, Germany). In each experiment, a full digestion of the heart was obtained. After digestion, cardiac cells were dissociated by gentle pipetting, filtered and collected after 25 min sedimentation. For infarcted hearts, the tissue was separated into the three zones (ZI, BZ and RZ). The three different areas were weighted before gentle pipetting.
Total proteins were extracted from CMs isolated from adult infarcted and unmanipulated neonatal and adult hearts. Proteins were transferred to nitrocellulose membranes (Biorad) before incubation with primary antibodies overnight at 4 °C. Secondary antibodies were added 1 h at RT in the dark (Supplementary File S1). The signal was detected and quantified with the Odyssey infrared imaging system (LI-COR. Biosciences, Bad Homburg, Germany). All results were normalized to the tubulin protein level or to the total protein level thanks to stainings with the Revert 700 Total protein Stain (LI-COR).

cardiomyocytes (CMs) [3] = conditions: adult CMs from unmanipulated BNP-treated hearts vs saline, p = 0.008; cited from earlier work
Text: The percentages of mononucleated CMs increased in all the BNP-treated hearts (Figure 2B,E,G).

Nkx2.5+ myocytes = conditions: cited from earlier work
[4] = neonatal CMs in vitro, BNP vs untreated
[5] = neonatal CMs in vitro, BNP vs untreated, 14 days

## Brain Natriuretic Peptide (SQGSTLRVQQRPQNSKVTHISSCFGHKIDRIGSVSRLGCNALKLL; not fully specified; ends and bridges not checked; UniProt P40753 77-121, looked up) [BNP, synthetic mouse BNP (1–45) peptide (Bachem, catalog number H-7558)]
[1]
  survival of infarcted mice: 84.2%
Cardiomyocytes (CMs) [2]; all BNP-treated hearts (infarcted, neonatal, adult)
  percentages of mononucleated CMs: increased
Cardiomyocytes (CMs) [2]; all areas of BNP-treated infarcted hearts
  frequency of small CMs (cross-sectional area): significantly higher
Troponin T; 1 day after MI
  Troponin T plasma concentration decrease: 2.6 ×
Troponin T; 3 days after MI
  Troponin T plasma concentration decrease: 2.1 ×
Neonatal CMs; 10 nM BNP, 14 days, 3% O2, vs untreated
  increase of number of CMs in culture: 18%
Neonatal CMs; BNP-treated neonatal CM cultures vs untreated
  number of small and mononucleated CMs: higher number
Neonatal CMs; [4]
  cyclin A2 mRNA increase: 40%
  cyclin B2 mRNA increase: 30%
  cyclin D1 mRNA increase: 50%
Neonatal CMs; [5]
  increase of percentage of CMs expressing Aurkb: 50%
  increase of percentage of CMs expressing Ki67: 23%
Phospholamban (PLB)
  pPLB/PLB ratio increase: 2.1 ×
Cardiomyocytes (CMs) [3]
  CM cross-sectional area change: −6%
Nkx2.5+ myocytes; adult BNP-treated hearts
  increase in Nkx2.5+ myocytes: 68%
Nkx2.5+ myocytes; neonatal BNP-treated hearts
  increase in Nkx2.5+ myocytes: 22.5%
